In the supplement of paper PMC10307832:

Assays:
Assay in all cases: relative viability (nuclei count vs DMSO), 5 days (fraction); higher = more cells survive
GW-2580 + Luminespib = compound: COC1=CC=C(C=C1)COC2=C(C=C(C=C2)CC3=CN=C(N=C3N)N)OC [GW-2580] + CCNC(=O)c1noc(-c2cc(C(C)C)c(O)cc2O)c1-c1ccc(CN2CCOCC2)cc1 [Luminespib] (partner 0.01 µM)
Procedure, shortened: (§1)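 Dosing by pin tool came one day after lung cancer cell lines were seeded in 1536-well plates, using either one drug or a fixed anchor-drug dose plus five library-drug doses (not always all listed) in √10 steps. After 5 days, nuclei were counted on 4× images. Relative viability is treated-well nuclei count divided by vehicle-well nuclei count, and values are medians of duplicate plates.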

GW-2580 + Tozasertib = compound: COC1=CC=C(C=C1)COC2=C(C=C(C=C2)CC3=CN=C(N=C3N)N)OC [GW-2580] + Cc1cc(Nc2cc(N3CCN(C)CC3)nc(Sc3ccc(NC(=O)C4CC4)cc3)n2)n[nH]1 [Tozasertib] (partner 0.1 µM)
Procedure, shortened: as §1

GW-2580 + Olaparib = compound: COC1=CC=C(C=C1)COC2=C(C=C(C=C2)CC3=CN=C(N=C3N)N)OC [GW-2580] + O=C(c1cc(Cc2n[nH]c(=O)c3ccccc23)ccc1F)N1CCN(C(=O)C2CC2)CC1 [Olaparib] (partner 8 µM)
Procedure, shortened: as §1

Fedratinib + Pictilisib = compound: Cc1cnc(Nc2ccc(OCCN3CCCC3)cc2)nc1Nc1cccc(S(=O)(=O)NC(C)(C)C)c1 [Fedratinib] + CS(=O)(=O)N1CCN(Cc2cc3nc(-c4cccc5[nH]ncc45)nc(N4CCOCC4)c3s2)CC1 [Pictilisib] (partner 1 µM)
Procedure, shortened: as §1

Fedratinib + AZD7762 = compound: Cc1cnc(Nc2ccc(OCCN3CCCC3)cc2)nc1Nc1cccc(S(=O)(=O)NC(C)(C)C)c1 [Fedratinib] + NC(=O)Nc1cc(-c2cccc(F)c2)sc1C(=O)N[C@H]1CCCNC1 [AZD7762] (partner 0.2 µM)
Procedure, shortened: as §1

Row | Cell Line | relative viability (GW-2580 + Luminespib; first compound 0.08 µM) | relative viability (GW-2580 + Luminespib; first compound 0.8 µM) | relative viability (GW-2580 + Luminespib; first compound 2.53 µM) | relative viability (GW-2580 + Luminespib; first compound 8 µM) | relative viability (GW-2580 + Tozasertib; first compound 0.08 µM) | relative viability (GW-2580 + Tozasertib; first compound 0.8 µM) | relative viability (GW-2580 + Tozasertib; first compound 2.53 µM) | relative viability (GW-2580 + Tozasertib; first compound 8 µM) | relative viability (GW-2580 + Olaparib; first compound 0.08 µM) | relative viability (GW-2580 + Olaparib; first compound 0.8 µM) | relative viability (GW-2580 + Olaparib; first compound 2.53 µM) | relative viability (GW-2580 + Olaparib; first compound 8 µM) | relative viability (Fedratinib + Pictilisib; first compound 0.1 µM) | relative viability (Fedratinib + Pictilisib; first compound 0.3162 µM) | relative viability (Fedratinib + Pictilisib; first compound 1 µM) | relative viability (Fedratinib + AZD7762; first compound 0.1 µM) | relative viability (Fedratinib + AZD7762; first compound 0.3162 µM) | relative viability (Fedratinib + AZD7762; first compound 1 µM)
1 | NCI-H1395 | 0.723 | 0.665 | 0.648 | 0.59 | 0.829 | 0.805 | 0.658 | 0.734 | 0.426 | 0.427 | 0.489 | 0.425 | 0.515 | 0.642 | 0.469 | 0.385 | 0.402 | 0.377
2 | 201T | 1.04 | 1.04 | 1.08 | 0.988 | 0.998 | 0.935 | 0.96 | 0.82 | 0.896 | 0.73 | 0.887 | 0.794 | 0.679 | 0.705 | 0.601 | 0.753 | 0.531 | 0.593
3 | NCI-H2170 | 0.827 | 0.572 | 0.851 | 0.594 | 1.04 | 0.816 | 0.777 | 0.677 | 0.616 | 0.702 | 0.569 | 0.574 | 0.266 | 0.329 | 0.221 | 0.77 | 0.821 | 0.644
4 | NCI-H460 | 0.0341 | 0.0427 | 0.0355 | 0.0322 | 0.349 | 0.394 | 0.422 | 0.33 | 0.379 | 0.508 | 0.516 | 0.353 | 0.354 | 0.316 | 0.295 | 0.738 | 0.563 | 0.544
5 | HCC-15 | 0.308 | 0.296 | 0.436 | 0.521 | 0.489 | 0.562 | 0.615 | 0.222 | 0.841 | 0.628 | 0.66 | 0.75 | 0.581 | 0.713 | 0.28 | 1.19 | 1.28 | 1.2
6 | ABC-1 | 0.637 | 0.505 | 0.391 | 0.518 | 0.157 | 0.147 | 0.179 | 0.193 | 0.774 | 0.634 | 1.43 | 0.824 | 0.694 | 0.809 | 0.318 | 0.741 | 0.877 | 0.792
7 | LCLC-103H | 1.01 | 0.895 | 0.844 | 0.839 | 0.555 | 0.432 | 0.484 | 0.396 | 0.799 | 0.895 | 0.733 | 0.736 | 0.536 | 0.678 | 0.512 | 0.857 | 0.72 | 0.647
8 | NCI-H441 | 0.307 | 0.621 | 0.493 | 0.293 | 0.698 | 0.704 | 0.584 | 0.655 | 0.644 | 0.582 | 0.555 | 0.585 | 0.441 | 0.42 | 0.239 | 1.34 | 1.09 | 1.05
9 | EPLC-272H | 0.274 | 0.204 | – | 0.243 | 0.321 | 0.266 | – | 0.214 | 0.819 | 0.861 | 0.755 | 0.605 | 0.257 | 0.35 | 0.0901 | 0.222 | 0.24 | 0.168
